Assay results from patent US20170217976A1, “6-(AMINO ACID)-MORPHINAN DERIVATIVES IN COMBINATION WITH PERMEATION […] FOR USE AS AN ORALLY, […], TRA[…] NASALLY AD[…]” (C[…], priority 2014, published 2017).
Like-named read-outs stand apart in the source and are kept apart here.

Assays:
[1] = molecular target: T1, human MOR (Homo sapiens, UniProt P35372); assay: biochemical; assay type: biochemical; settings: for Emax: read-out: [35S]GTPγS binding, MOR % stim.
T1 construct: expressed in transfected cells; host or cells: CHO cells
Procedure: A number of compounds were evaluated for agonist potency and efficacy at the MOR using the [^35S]GTPγS functional assay in CHO cells expressing human MOR receptors.

[2] = molecular target: T2, KOR (Cavia porcellus, UniProt P41144); assay: Opioid receptor binding, KOR, guinea pig brain membranes
T2 construct: from tissue

[3] = molecular target: T3, DOR (Rattus norvegicus, UniProt P33533); assay: Opioid receptor binding, DOR, rat brain membranes
T3 construct: from tissue

[4] = molecular target: T4, MOR (Rattus norvegicus, UniProt P33535); assay: Opioid receptor binding, MOR, rat brain membranes
T4 construct: from tissue

[5] = pH-metric determination of pKa, logP and logD in octanol/water (PCA200/Cheqsol); assay type: physicochemical; settings: octanol/water, 25° C.
Procedure: All titrations were performed in 0.15M KCl solution under argon gas. The pKa was determined by the shape of the titration curve and partition coefficients were determined by the shift in titration curve of pKa in the presence of octanol. The analysis of pH-metric data was performed by RefinementPro software (version 2.0, Sirius, Sussex, UK).

[6] = molecular target: T5, human MOP expressed in CHO cells (Homo sapiens, UniProt P35372); assay: [35S]GTPγS binding, antagonism at MOR (Ke against DAMGO); assay type: biochemical; settings: for Kb: Table 1-6, antagonist Ke measured against DAMGO
T5 construct: expressed in transfected cells; host or cells: CHO cells (per the unit's head)

[7] = system: mouse vas deferens preparation; assay: Mouse vas deferens bioassay; settings: read-out: IC50, agonist potency in mouse vas deferens
Procedure: The mouse vas deferens bioassay was performed as described in: M. Spetea et al., Eur. J. Pharmacol. 2004, 483, 301-308

[8] = Table 1-4, human MOP expressed in CHO cells, read-out: [35S]GTPγS binding, MOR EC50
[9] = Table 1-4, measured against DAMGO
[10] = Binding Ki (nM) KOR, in vitro binding assay, guinea pig brain membranes
[11] = Binding Ki KOR, Table 1-4, guinea pig brain membranes
[12] = Binding Ki (nM) DOR, in vitro binding assay, rat brain membranes
[13] = Binding Ki DOR, Table 1-4, rat brain membranes
[14] = Binding Ki (nM) MOR, in vitro binding assay, rat brain membranes
[15] = Binding Ki MOR, Table 1-4, rat brain membranes
[16] = Binding Ki KOR, Table 1-6, guinea pig brain membranes
[17] = Binding Ki KOR, Table 2-6, guinea pig brain membranes
[18] = Binding Ki DOR, Table 1-6, rat brain membranes
[19] = Binding Ki DOR, Table 2-6, rat brain membranes
[20] = Binding Ki MOR, Table 1-6, rat brain membranes
[21] = Binding Ki MOR, Table 2-6, rat brain membranes
[22] = read-out: [35S]GTPγS binding, MOR Ke

T2 sequence (P41144 whole entry): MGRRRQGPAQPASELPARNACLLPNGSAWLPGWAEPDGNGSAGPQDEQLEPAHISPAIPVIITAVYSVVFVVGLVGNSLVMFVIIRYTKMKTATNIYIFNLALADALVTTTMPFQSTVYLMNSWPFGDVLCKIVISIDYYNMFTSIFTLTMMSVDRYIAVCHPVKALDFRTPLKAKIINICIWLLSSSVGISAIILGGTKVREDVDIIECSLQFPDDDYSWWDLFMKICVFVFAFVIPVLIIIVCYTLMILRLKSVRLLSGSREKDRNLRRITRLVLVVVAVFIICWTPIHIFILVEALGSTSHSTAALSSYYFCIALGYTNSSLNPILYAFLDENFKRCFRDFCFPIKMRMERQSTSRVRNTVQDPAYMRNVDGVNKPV
T5 sequence (P35372 whole entry): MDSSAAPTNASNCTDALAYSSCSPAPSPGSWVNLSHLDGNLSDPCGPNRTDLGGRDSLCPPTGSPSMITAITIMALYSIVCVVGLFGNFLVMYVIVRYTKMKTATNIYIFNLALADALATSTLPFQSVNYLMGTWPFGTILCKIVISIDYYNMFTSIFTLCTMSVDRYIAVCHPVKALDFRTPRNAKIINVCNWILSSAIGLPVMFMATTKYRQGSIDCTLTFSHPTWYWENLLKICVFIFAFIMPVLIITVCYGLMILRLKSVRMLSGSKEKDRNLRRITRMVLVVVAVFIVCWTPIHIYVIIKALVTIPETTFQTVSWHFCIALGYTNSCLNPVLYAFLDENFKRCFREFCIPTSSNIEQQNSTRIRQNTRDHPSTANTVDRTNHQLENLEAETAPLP
T1 sequence (P35372 whole entry): as above
T4 sequence (P33535 whole entry): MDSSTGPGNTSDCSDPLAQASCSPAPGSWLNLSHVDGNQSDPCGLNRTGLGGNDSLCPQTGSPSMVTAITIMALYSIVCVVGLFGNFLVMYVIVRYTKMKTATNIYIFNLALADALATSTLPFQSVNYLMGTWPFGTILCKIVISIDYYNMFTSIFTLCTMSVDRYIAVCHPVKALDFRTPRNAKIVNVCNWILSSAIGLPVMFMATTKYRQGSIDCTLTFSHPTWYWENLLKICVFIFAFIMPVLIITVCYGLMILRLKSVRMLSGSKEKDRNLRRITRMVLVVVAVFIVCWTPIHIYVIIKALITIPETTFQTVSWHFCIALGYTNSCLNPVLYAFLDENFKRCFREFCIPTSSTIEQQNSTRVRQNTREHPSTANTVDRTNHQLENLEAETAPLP
T3 sequence (P33533 whole entry): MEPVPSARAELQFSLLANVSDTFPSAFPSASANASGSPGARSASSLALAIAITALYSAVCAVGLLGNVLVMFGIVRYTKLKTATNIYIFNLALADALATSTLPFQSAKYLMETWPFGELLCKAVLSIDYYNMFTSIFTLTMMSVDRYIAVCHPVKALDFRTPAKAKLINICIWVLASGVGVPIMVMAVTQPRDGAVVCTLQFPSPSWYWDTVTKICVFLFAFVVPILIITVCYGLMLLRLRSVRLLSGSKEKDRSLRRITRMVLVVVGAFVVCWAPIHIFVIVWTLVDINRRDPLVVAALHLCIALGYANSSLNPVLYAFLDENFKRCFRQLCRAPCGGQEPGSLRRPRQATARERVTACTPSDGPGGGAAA

SMILES	Ki [2, 10]	Ki [3, 12]	Ki [4, 14]	EC50 [6]	Kb ([6]; [35S]GTPγS binding, MOR Ke)	Ki [2, 16]	Ki [2, 17]	Ki [3, 18]	Ki [3, 19]	Ki [4, 20]	Ki [4, 21]	further results
CO[C@@]12CC[C@H](N[C@@H](CCC(=O)O)C(=O)O)[C@@H]3Oc4c(O)ccc5c4[C@@]31CCN(C)[C@@H]2C5 [Compound 19]	–	–	–	–	–	–	–	–	–	–	–	EC50 [1, 8]: 1.61 nM
CO[C@@]12CC[C@H](N[C@@H](CC(N)=O)C(=O)O)[C@@H]3Oc4c(O)ccc5c4[C@@]31CCN(C)[C@@H]2C5 [Compound 26]	74 nM	3.37 nM	1.17 nM	–	–	–	–	–	–	–	–	EC50 [1, 8]: 0.64 nM; Emax [1, 9]: 109%; Ki [2, 11]: 74 nM; Ki [3, 13]: 3.37 nM; Ki [4, 15]: 1.17 nM
CO[C@@]12CC[C@@H](N[C@H](C(=O)O)[C@@H](C)O)[C@@H]3Oc4c(O)ccc5c4[C@@]31CCN(C)[C@@H]2C5 [Compound 35]	58.6 nM	5.16 nM	0.79 nM	–	–	–	–	–	–	–	–	logP [5]: -1.38; Ki [2, 11]: 58.6 nM; Ki [3, 13]: 5.16 nM; Ki [4, 15]: 0.79 nM
CO[C@@]12CC[C@@H](NCCC(=O)O)[C@@H]3Oc4c(O)ccc5c4[C@@]31CCN(CC1CC1)[C@@H]2C5 [Compound 64]	–	–	–	> 10000 nM	0.96 nM	11.7 nM	11.7 nM	8.12 nM	8.12 nM	1.51 nM	1.51 nM	–
CO[C@@]12CC[C@H](NCCCC(=O)O)[C@@H]3Oc4c(O)ccc5c4[C@@]31CCN(CC1CC1)[C@@H]2C5 [Compound 65]	–	–	–	> 10000 nM	–	5.31 nM	5.31 nM	10.7 nM	10.7 nM	1.21 nM	1.21 nM	Kb [6, 22]: 0.94 nM
O=C(O)C(Cc1ccccc1)NC1CCC2(O)C3Cc4ccc(O)c5c4C2(CCN3CC2CC2)C1O5 (single isomer, unassigned) [Compound 59]	–	–	–	> 10000 nM	0.25 nM	2.65 nM	2.65 nM	3.53 nM	3.53 nM	1.41 nM	1.41 nM	–
CO[C@@]12CC[C@@H](NCC(=O)O)[C@@H]3Oc4c(O)ccc5c4[C@@]31CCN(CC1CC1)[C@@H]2C5 [Compound 62]	–	–	–	> 10000 nM	0.19 nM	9.31 nM	9.31 nM	4.76 nM	4.76 nM	1.31 nM	1.31 nM	–
CO[C@@]12CC[C@H](N[C@@H](Cc3ccccc3)C(=O)O)[C@@H]3Oc4c(O)ccc5c4[C@@]31CCN(C)[C@@H]2C5 [Compound 3]	–	–	–	–	–	–	–	–	–	–	–	EC50 [1, 8]: 0.03 nM; Emax [1, 9]: 116%
CO[C@@]12CC[C@H](NCCCC(=O)O)[C@@H]3Oc4c(O)ccc5c4[C@@]31CCN(C)[C@@H]2C5 [Compound 15]	–	–	–	–	–	–	–	–	–	–	–	EC50 [1]: 1.9 nM; Emax [1]: 113%; logP [5]: -0.36
CO[C@@]12CC[C@H](NCCC(=O)O)[C@@H]3Oc4c(O)ccc5c4[C@@]31CCN(CC1CC1)[C@@H]2C5 [Compound 63]	–	–	–	> 10000 nM	0.27 nM	7.81 nM	7.81 nM	6.25 nM	6.25 nM	1.35 nM	1.35 nM	–
C[C@@H](NC(=O)[C@@H](N)Cc1ccc(O)cc1)C(=O)NCC(=O)N(C)[C@@H](Cc1ccccc1)C(=O)NCCO [DAMGO, reference compound]	–	–	–	–	–	–	–	–	–	–	–	IC50 [7]: 76.6 nM
CO[C@@]12CC[C@@H](N[C@@H](CC(=O)O)C(=O)O)[C@@H]3Oc4c(O)ccc5c4[C@@]31CCN(C)[C@@H]2C5 [Compound 45]	–	–	–	–	–	–	–	–	–	–	–	logP [5]: -2.2
CO[C@@]12CC[C@@H](N[C@@H](CO)C(=O)O)[C@@H]3Oc4c(O)ccc5c4[C@@]31CCN(C)[C@@H]2C5 [Compound 37]	152 nM	5.29 nM	2.14 nM	–	–	–	–	–	–	–	–	EC50 [1, 8]: 3.24 nM; Ki [2, 11]: 152 nM; Ki [3, 13]: 5.29 nM; Ki [4, 15]: 2.14 nM
CO[C@@]12CC[C@H](NCC(=O)O)[C@@H]3Oc4c(O)ccc5c4[C@@]31CCN(CC1CC1)[C@@H]2C5 [Compound 61]	–	–	–	> 10000 nM	0.63 nM	4.65 nM	4.65 nM	5.15 nM	5.15 nM	0.68 nM	0.68 nM	–
CO[C@@]12CC[C@H](N[C@@H](CCCCN)C(=O)O)[C@@H]3Oc4c(O)ccc5c4[C@@]31CCN(C)[C@@H]2C5 [Compound 38]	12.6 nM	1.27 nM	0.19 nM	–	–	–	–	–	–	–	–	logP [5]: -0.66; Ki [2, 11]: 12.6 nM; Ki [3, 13]: 1.27 nM; Ki [4, 15]: 0.19 nM
O=C(O)C(Cc1ccccc1)NC1CCC2(O)C3Cc4ccc(O)c5c4C2(CCN3CC2CC2)C1O5 (single isomer, unassigned) [Compound 60]	–	–	–	–	0.24 nM	8.99 nM	8.99 nM	2.79 nM	2.79 nM	1.83 nM	1.83 nM	EC50 ([6]; read-out: [35S]GTPγS binding, MOR EC50, Table 1-6, stimulation of [35S]GTPγS binding): > 10000 nM
CO[C@@]12CC[C@H](N[C@@H](CO)C(=O)O)[C@@H]3Oc4c(O)ccc5c4[C@@]31CCN(C)[C@@H]2C5 [Compound 36]	196 nM	5.32 nM	2.21 nM	–	–	–	–	–	–	–	–	EC50 [1]: 1.21 nM; Emax [1]: 96%; Ki [2, 11]: 196 nM; Ki [3, 13]: 5.32 nM; Ki [4, 15]: 2.21 nM
CO[C@@]12CCC(=O)[C@@H]3Oc4c(O)ccc5c4[C@@]31CCN(CC1CC1)[C@@H]2C5 [Compound 14-OMe-NTX, 14-O-Methylnaltrexone, reference compound]	–	–	–	> 10000 nM	0.49 nM	1.17 nM	1.17 nM	7.88 nM	7.88 nM	0.46 nM	0.46 nM	–
CO[C@@]12CC[C@@H](N[C@@H](Cc3c[nH]c4ccccc34)C(=O)O)[C@@H]3Oc4c(O)ccc5c4[C@@]31CCN(C)[C@@H]2C5 [Compound 46]	8.66 nM	1.19 nM	0.65 nM	–	–	–	–	–	–	–	–	EC50 [1, 8]: 0.61 nM; Emax [1, 9]: 112%; Ki [2, 11]: 8.66 nM; Ki [3, 13]: 1.19 nM; Ki [4, 15]: 0.65 nM
CCO[C@@]12CCC(=O)[C@@H]3Oc4c(O)ccc5c4[C@@]31CCN(CC1CC1)[C@@H]2C5 [Compound 14-OEt-NTX, 14-O-Ethylnaltrexone, reference compound]	–	–	–	> 10000 nM	0.31 nM	0.93 nM	0.93 nM	4.13 nM	4.13 nM	0.35 nM	0.35 nM	–
CO[C@@]12CC[C@@H](NCCCC(=O)O)[C@@H]3Oc4c(O)ccc5c4[C@@]31CCN(CC1CC1)[C@@H]2C5 [Compound 66]	–	–	–	> 10000 nM	–	16.8 nM	16.8 nM	10.2 nM	10.2 nM	3.36 nM	3.36 nM	Kb [6, 22]: 1.06 nM
CO[C@@]12CC[C@H](N[C@H](C(=O)OC(C)(C)C)[C@@H](C)O)[C@@H]3Oc4c(O)ccc5c4[C@@]31CCN(C)[C@@H]2C5 [34-t-Bu ester]	9.24 nM	0.37 nM	0.2 nM	–	–	–	–	–	–	–	–	–
